Test results as given in PubChem BioAssay (NCI).
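Where inhibition never reached the appropriate level, the endpoint shown equals the highest concentration tested. Otherwise, values were interpolated linearly from a five-concentration, 48-hour dose response in 96-well plates. TGI: total growth inhibition.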

Assays:
Experiment in all cases: inhibition of tumour cell growth, NCI panel, 48 h
TK-10 renal = system: TK-10 renal
MDA-MB-231 breast = system: MDA-MB-231 breast
KM20L2 colon = system: KM20L2 colon
M19-MEL melanoma = system: M19-MEL melanoma
LXFL 529 NSCLC = system: LXFL 529 NSCLC
DMS 273 small cell lung = system: DMS 273 small cell lung
SNB-78 CNS = system: SNB-78 CNS
DLD-1 colon = system: DLD-1 colon
HOP-18 NSCLC = system: HOP-18 NSCLC
DMS 114 small cell lung = system: DMS 114 small cell lung

Structure (SMILES) | TGI (TK-10 renal) | TGI (MDA-MB-231 breast) | other results
CC(=O)O[C@H]1CC[C@@]2(C)C(=CC[C@@H]3[C@@H]2CC[C@](C)(c2nnc(C)o2)[C@H]3CC#N)C1 | > 100 µM | > 100 µM | –
CCCn1c(=O)c2nn3c(=O)n(CCC)c(=O)c3nn2c1=O | > 100 µM | – | –
COc1ccccc1N1C(=O)CSC1c1cc(OC)c(OC)c(OC)c1 (stereo not given) | > 100 µM | > 100 µM | –
CSC1=C(C#N)C(=O)N(c2ccc(C)cc2)C(=O)C1C#N (stereo not given) | > 100 µM | > 100 µM | –
Cc1ccc(SCC(CF)OC(C)n2cnc3c(Cl)nc(N)nc32)cc1 (stereo not given) | > 100 µM | > 100 µM | –
CC(C)CC(NC=O)C(=O)NC(Cc1ccccc1)NC(=O)CNC(=O)C(C)NC(=O)C(N)Cc1ccc(O)cc1 (stereo not given) | > 100 µM | > 100 µM | –
O=C1CC(C(OCc2ccccc2)C(OCc2ccccc2)C(OCc2ccccc2)C(COCc2ccccc2)OCc2ccccc2)CC(=O)N1 (stereo not given) | > 100 µM | – | –
CC(Cc1cccc2c1Nc1ccccc1S2)N(C)CCO (stereo not given) | > 100 µM | > 100 µM | –
C=C(CCC/C(C)=C/C=C/[C@H](C)CCCc1ccoc1)C[C@@H]1OC(=O)[C@H](C)[C@@H]1O | 22.2 µM | 19.4 µM | –
C(=N\NC1=NCCN1)/c1cccc2cc3ccncc3nc12 | 22.2 µM | 6.13 µM | –
Cc1c2ccccc2c(C2C3C(=O)N(c4cccc5ccccc45)C(=O)C3ON2Cc2ccc(CC(N)=O)cc2)c2ccccc12 (stereo not given) | > 50 µM | > 50 µM | –
O=c1oc2ccc3ccccc3c2cc1-c1cn2c(n1)sc1ccccc12 | > 100 µM | > 100 µM | –
N#Cc1ccc(C(C2C(=O)NC(=O)NC2=O)C2C(=O)NC(=O)NC2=O)cc1 | > 100 µM | – | TGI (KM20L2 colon): > 100 µM; TGI (M19-MEL melanoma): > 100 µM; TGI (LXFL 529 NSCLC): > 100 µM; TGI (DMS 273 small cell lung): > 100 µM
O=C(Oc1c(Br)cc(Br)cc1C(=O)Oc1ccccc1)C(=O)Oc1c(Br)cc(Br)cc1C(=O)Oc1ccccc1 | > 100 µM | 30.6 µM | –
O=C1CCCC2=C1CC1=C(CCCC1=O)N2c1ccc([N+](=O)[O-])cc1 | > 100 µM | – | –
O=c1nc2c(c(-c3ccc(F)cc3)[nH]1)COC/C2=C\c1ccc(F)cc1 | > 100 µM | > 100 µM | –
Nc1nc(N)c2ncn(-c3ccccc3)c2n1 | > 100 µM | > 100 µM | –
CCCNCC(O)CNc1ccc(NCC(O)CNCCC)c2c1C(=O)c1ccccc1C2=O (stereo not given) | 22.2 µM | 10.1 µM | –
CCOC(=O)C1=CNC(C(=O)OCC)C1c1cccn1-c1ccccc1 (stereo not given) | > 100 µM | 40.1 µM | –

Structure (SMILES) | TGI (TK-10 renal) | TGI (MDA-MB-231 breast) | other results
O=C1CCSc2nc(-c3ccc4c(c3)OCO4)nn21 | > 10 µM | > 10 µM | –
COc1ccc(NS(=O)c2c(C)cc(C)cc2C)cc1 (stereo not given) | > 100 µM | > 100 µM | –
CC(=O)OCC1OC(OC(C)=O)C(Nc2ncc(-c3ccc(C)cc3)s2)C(OC(C)=O)C1OC(C)=O (stereo not given) | 32.9 µM | 49.8 µM | –
Cn1nc(-c2ccccc2)c2c(-c3ccccc3)c3cc(Cl)ccc3nc21 | > 100 µM | > 100 µM | –
CO[C@H]1O[C@@H]2OC3(C)CCC4[C@H](C)CCC([C@H]1C)[C@]42OO3 (stereo not given in full) | – | > 100 µM | –
CCOC(=O)Nc1n[nH]nc1Cl | > 100 µM | > 100 µM | –
COc1ccccc1NC(=O)C(=O)Cc1cnc2ccccc2n1 | – | > 100 µM | –
O=C1Nc2ccccc2/C1=C\c1c(-c2ccccc2)nc2n1CCS2 | 34.3 µM | 47 µM | –
O=C(c1ccccc1)C(Nc1ccc2ccccc2c1)c1ccccc1 (stereo not given) | > 100 µM | > 100 µM | –
CN(C)CC1CCCCCCCCCCCCC(CN(C)C)C1=O (stereo not given) | 27.9 µM | – | TGI (SNB-78 CNS): 28.7 µM; TGI (DLD-1 colon): 29.6 µM; TGI (KM20L2 colon): 24.9 µM; TGI (M19-MEL melanoma): 25.1 µM; TGI (LXFL 529 NSCLC): 28.1 µM; TGI (HOP-18 NSCLC): 30.1 µM; TGI (DMS 273 small cell lung): 22.9 µM; TGI (DMS 114 small cell lung): 31.3 µM
O=C(O)c1cccc(OCCOc2cccc(C(=O)O)c2[N+](=O)[O-])c1[N+](=O)[O-] | > 100 µM | > 100 µM | –
COC(=O)[C@H](COC(C)(C)C)NC(=O)N[C@H](C)c1ccccc1 | > 100 µM | > 100 µM | –
C/C1=C/C[C@@H](/C(C)=C/c2csc(C)n2)OC(=O)C[C@H](O)C(C)(C)C(=O)[C@H](C)[C@@H](O)[C@@H](C)CCC1 | 0.4 µM | – | –
Fc1cccc(C2SCc3nc4cc5ccccc5cc4n32)c1 (stereo not given) | > 100 µM | > 100 µM | –
CCOC(=O)C1(C#N)C(C#N)(C#N)C1(C#N)C#N | > 100 µM | > 100 µM | –
COC(=O)CC(CNC(=O)OCc1ccccc1)OCc1ccc(OC)cc1 (stereo not given) | > 100 µM | > 100 µM | –
CN1CC=C(c2cccn2C)CC1 | > 100 µM | > 100 µM | –
CC1CCC2CC1NC(=O)CCOCCC(=O)NC2(C)C (stereo not given) | > 100 µM | > 100 µM | –
CC[C@@H]1CC[C@@H]2[C@H](CC[C@]3(C)[C@@H](OC(C)=O)CC[C@@H]23)[C@H]1C(=O)OC | > 100 µM | 46 µM | –
